Test results reported in the NIST ThermoML archive (doi:10.1016/j.jct.2006.05.008).
“And” between values parts separate entries of the source, which are not always exact repeats. Identical values can stand only once.

Test: molar heat capacity at constant pressure
Conditions: 101.33 kPa

CCC[n+]1ccn(C)c1.[Br-] [1-methyl-3-propylimidazolium bromide]
Conditions | molar heat capacity at constant pressure
173.15 K, Glass, Small (less than 1 g) adiabatic calorimetry | 156.22 J/K/mol
173.73 K, Crystal, Vacuum adiabatic calorimetry | 150.42 J/K/mol
173.86 K, Metastable crystal, Small (less than 1 g) adiabatic calorimetry | 151.16 J/K/mol
174.05 K, Crystal, Vacuum adiabatic calorimetry | 150.49 J/K/mol
174.37 K, Glass, Small (less than 1 g) adiabatic calorimetry | 156.97 J/K/mol
175.42 K, Crystal, Vacuum adiabatic calorimetry | 151.1 J/K/mol
175.61 K, Glass, Small (less than 1 g) adiabatic calorimetry | 157.68 J/K/mol
175.8 K, Crystal, Vacuum adiabatic calorimetry | 151.34 J/K/mol
176.31 K, Metastable crystal, Small (less than 1 g) adiabatic calorimetry | 156.29 J/K/mol
176.79 K, Crystal, Vacuum adiabatic calorimetry | 151.84 J/K/mol
177.16 K, Glass, Small (less than 1 g) adiabatic calorimetry | 158.66 J/K/mol
177.87 K, Crystal, Vacuum adiabatic calorimetry | 152.35 J/K/mol
178.06 K, Glass, Small (less than 1 g) adiabatic calorimetry | 159.2 J/K/mol
178.16 K, Crystal, Vacuum adiabatic calorimetry | 152.6 J/K/mol
178.77 K, Metastable crystal, Small (less than 1 g) adiabatic calorimetry | 157.34 J/K/mol
179.54 K, Crystal, Vacuum adiabatic calorimetry | 153.2 J/K/mol
179.94 K, Crystal, Vacuum adiabatic calorimetry | 153.35 J/K/mol
179.96 K, Glass, Small (less than 1 g) adiabatic calorimetry | 160.43 J/K/mol
180.51 K, Glass, Small (less than 1 g) adiabatic calorimetry | 160.72 J/K/mol
180.91 K, Crystal, Vacuum adiabatic calorimetry | 153.97 J/K/mol
181.24 K, Metastable crystal, Small (less than 1 g) adiabatic calorimetry | 158.54 J/K/mol
182.01 K, Crystal, Vacuum adiabatic calorimetry | 154.36 J/K/mol
182.28 K, Crystal, Vacuum adiabatic calorimetry | 154.57 J/K/mol
182.76 K, Glass, Small (less than 1 g) adiabatic calorimetry | 162.21 J/K/mol
182.96 K, Glass, Small (less than 1 g) adiabatic calorimetry | 162.2 J/K/mol
183.71 K, Metastable crystal, Small (less than 1 g) adiabatic calorimetry | 159.86 J/K/mol
184.08 K, Crystal, Vacuum adiabatic calorimetry | 155.44 J/K/mol
184.32 K, Crystal, Vacuum adiabatic calorimetry | 155.34 J/K/mol
185.31 K, Crystal, Vacuum adiabatic calorimetry | 156.02 J/K/mol
185.4 K, Glass, Small (less than 1 g) adiabatic calorimetry | 163.81 J/K/mol
185.55 K, Glass, Small (less than 1 g) adiabatic calorimetry | 163.97 J/K/mol
186.15 K, Crystal, Vacuum adiabatic calorimetry | 156.46 J/K/mol
186.18 K, Metastable crystal, Small (less than 1 g) adiabatic calorimetry | 161.18 J/K/mol
186.86 K, Crystal, Vacuum adiabatic calorimetry | 156.54 J/K/mol
187 K, Crystal, Vacuum adiabatic calorimetry | 156.84 J/K/mol
187.85 K, Glass, Small (less than 1 g) adiabatic calorimetry | 165.5 J/K/mol
188.22 K, Crystal, Vacuum adiabatic calorimetry | 157.39 J/K/mol
188.33 K, Glass, Small (less than 1 g) adiabatic calorimetry | 165.89 J/K/mol
188.37 K, Crystal, Vacuum adiabatic calorimetry | 157.44 J/K/mol
188.65 K, Metastable crystal, Small (less than 1 g) adiabatic calorimetry | 162.48 J/K/mol
189.74 K, Crystal, Vacuum adiabatic calorimetry | 158.15 J/K/mol and 158.27 J/K/mol
190.29 K, Crystal, Vacuum adiabatic calorimetry | 158.43 J/K/mol
190.29 K, Glass, Small (less than 1 g) adiabatic calorimetry | 167.25 J/K/mol
190.58 K, Crystal, Vacuum adiabatic calorimetry | 158.53 J/K/mol
191.11 K, Crystal, Vacuum adiabatic calorimetry | 158.93 J/K/mol
191.12 K, Glass, Small (less than 1 g) adiabatic calorimetry | 167.98 J/K/mol
191.12 K, Metastable crystal, Small (less than 1 g) adiabatic calorimetry | 163.72 J/K/mol
192.28 K, Crystal, Vacuum adiabatic calorimetry | 159.62 J/K/mol
192.36 K, Crystal, Vacuum adiabatic calorimetry | 159.59 J/K/mol
192.48 K, Crystal, Vacuum adiabatic calorimetry | 159.63 J/K/mol
192.74 K, Glass, Small (less than 1 g) adiabatic calorimetry | 168.95 J/K/mol
193.11 K, Crystal, Vacuum adiabatic calorimetry | 160.08 J/K/mol
193.58 K, Metastable crystal, Small (less than 1 g) adiabatic calorimetry | 165.05 J/K/mol
193.85 K, Crystal, Vacuum adiabatic calorimetry | 160.55 J/K/mol
193.9 K, Glass, Small (less than 1 g) adiabatic calorimetry | 169.91 J/K/mol
194.35 K, Crystal, Vacuum adiabatic calorimetry | 160.92 J/K/mol
195.18 K, Crystal, Vacuum adiabatic calorimetry | 161.48 J/K/mol
195.19 K, Glass, Small (less than 1 g) adiabatic calorimetry | 171.15 J/K/mol
195.22 K, Crystal, Vacuum adiabatic calorimetry | 161.53 J/K/mol
196.05 K, Metastable crystal, Small (less than 1 g) adiabatic calorimetry | 166.26 J/K/mol
196.59 K, Crystal, Vacuum adiabatic calorimetry | 162.52 J/K/mol
196.68 K, Glass, Small (less than 1 g) adiabatic calorimetry | 172.49 J/K/mol
197.24 K, Crystal, Vacuum adiabatic calorimetry | 163.14 J/K/mol
197.62 K, Glass, Small (less than 1 g) adiabatic calorimetry | 173.39 J/K/mol
197.95 K, Crystal, Vacuum adiabatic calorimetry | 163.6 J/K/mol
198.51 K, Crystal, Vacuum adiabatic calorimetry | 164.2 J/K/mol
198.51 K, Metastable crystal, Small (less than 1 g) adiabatic calorimetry | 167.53 J/K/mol
199.3 K, Crystal, Vacuum adiabatic calorimetry | 164.84 J/K/mol
